The source of these data is patent US20240287154A1, “MC3R AGONIST PEPTIDES” (The Regents of the University of Michigan, priority 2021, published 2024).

One data set has as its target T1, human MC3R (Homo sapiens, UniProt P41968).
T1 construct: expressed in transfected cells
Briefly: Intracellular cAMP levels in live cells, MC3R agonist activity. It counts as cell-based. As to conditions: cAMP split-luciferase reporter cell line stably expressing human MC3R; direct agonist effect, measurement window 1. How it is done:
The stable cell lines were grown and maintained in selection media consisting of Dulbecco's modified Eagle media (DMEM) with 4.5 g/l D-glucose, and 4 mM L-glutamine (Thermo Fisher Scientific, Waltham, MA), supplemented with 10% fetal bovine serum, 100 units/ml penicillin, 100 μg/ml streptomycin, 2.5 μg/ml amphotericin B, 200 μg/ml hygromycin B (for positive selection of the GScAMP22f luciferase reporter), and Geneticin™ (G418) 700 μg/ml (for MC3R or MC4R selection). Actual serum concentration during the assay is estimated to be about 1%. Cell line identity is routinely verified by qPCR and MC3R- and MC4R-specific oligonucleotides.
The assay for the determination of the CAMP response in live cells was described previously. […] Ccells were seeded at a density of 20,000 cells per well using 384-well poly-D lysine-coated, clear bottom, and black-wall assay plates (Corning Inc. Corning, NJ). Cells were allowed to attach to the plates for 18 to 24 h after which growth media was removed and 20 ul of 4% D-luciferin (Promega) in CO2 independent, serum-free medium (Thermo Fisher Scientific) was added to each well. […] Intracellular cAMP levels were measured using an FDSS 7000EX Functional Drug Screening System (Hamamatsu Photonics, Hamamatsu, Japan) in the Center for Chemical Genomics at the Life Sciences Institute. This instrument allowed the in-line addition of test-peptides and receptor agonists while simultaneously acquiring the luminescence signal from live cells. […] A submaximal forskolin (20 μM) concentration was also included to serve as a normalization reference to account for cell number variations and differences in assay transducer efficiency between cell lines.
With this set up it was possible to evaluate the direct agonist effect of the test-peptides on the MC3R and MC4R cell lines during measurement window 1, while the antagonist profile in the presence of EC90 α-MSH was determined on measurement window 2. […] EC50 or IC50 potency values were determined by non-linear regression by fitting the data to a sigmoid four-parameter variable slope model using the GraphPad Prism version 8.4 software package (San Diego CA).

The target in the next data set is human MC4R (Homo sapiens, UniProt P32245). In words: Intracellular cAMP levels in live cells, MC3R selectivity relative to MC4R. It counts as cell-based. As to conditions: cAMP assays in human MC3R and human MC4R stable cell lines.
The next data set is described as follows: in vitro. How it is done:
Pooled mouse plasma was prepared and stored at −80° C. prior to use. 396 μL mouse plasma was incubated at 37° C. for 5 minutes in 1.5 mL microcentrifuge tubes. 4 μL of 100 μM test or control compound/peptide was added to each tube and incubated for 0.5, 15, 30, 60, 120, or 240 minutes. An aliquot of 40 μL of each reaction was stopped by the addition of 4 volume of cold acetonitrile containing 200 ng/mL of Setmelanotide as an internal standard (IS). The incubation solution was centrifuged at 3500 rpm for 10 minutes to precipitate protein. The supernatant was used for LC/MS/MS analysis. The natural log peak area ratio (compound peak […] area/internal standard peak area) was plotted against time and the gradient of the line determined.

The structures appear in SMILES notation. pEC50: −log10 of the molar value. Non-standard residues stand in square brackets, D forms with d. Residues, ends and D or L forms follow the SMILES beside them. Phe(4-Cl) = N[C@@H](Cc1ccc(Cl)cc1)C(=O)O; Phe(4-F) = N[C@@H](Cc1ccc(F)cc1)C(=O)O; Phe(4-I) = N[C@@H](Cc1ccc(I)cc1)C(=O)O; 2Nal = N[C@@H](Cc1ccc2ccccc2c1)C(=O)O; Nle = CCCC[C@H](N)C(=O)O; dAbu = CC[C@@H](N)C(=O)O

T1 sequence (P41968 whole entry): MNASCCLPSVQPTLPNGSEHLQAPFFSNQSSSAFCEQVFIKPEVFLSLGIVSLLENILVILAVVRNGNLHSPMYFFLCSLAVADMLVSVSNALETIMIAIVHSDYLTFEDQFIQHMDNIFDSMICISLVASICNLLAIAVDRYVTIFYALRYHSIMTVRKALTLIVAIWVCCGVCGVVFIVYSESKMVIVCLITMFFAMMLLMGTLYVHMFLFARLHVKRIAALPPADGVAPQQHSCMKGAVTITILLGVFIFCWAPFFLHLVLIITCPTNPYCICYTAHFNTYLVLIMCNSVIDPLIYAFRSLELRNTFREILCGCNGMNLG
Sequence of human MC4R (P32245 whole entry): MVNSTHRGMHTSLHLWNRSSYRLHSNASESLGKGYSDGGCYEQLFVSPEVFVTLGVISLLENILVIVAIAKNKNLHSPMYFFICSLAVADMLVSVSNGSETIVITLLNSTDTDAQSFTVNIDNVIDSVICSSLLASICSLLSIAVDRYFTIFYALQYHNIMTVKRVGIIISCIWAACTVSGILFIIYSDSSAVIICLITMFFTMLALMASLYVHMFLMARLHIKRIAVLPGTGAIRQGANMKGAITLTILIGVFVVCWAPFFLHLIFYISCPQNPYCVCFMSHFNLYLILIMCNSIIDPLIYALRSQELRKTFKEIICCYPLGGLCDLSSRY

In turn, `CCCC[C@H](NC(=O)[C@@H](NC(C)=O)C(C)C)C(=O)N[C@H](C)C(=O)N[C@@H](Cc1c[nH]cn1)C(=O)N[C@@H](Cc1ccccc1)C(=O)N[C@@H](CCCNC(=N)N)C(=O)N[C@H](Cc1c[nH]c2ccccc12)C(=O)N[C@@H](CC(=O)O)C(=O)N[C@@H](CCCNC(=N)N)C(=O)N[C@@H](Cc1ccccc1)C(=O)NCC(=O)O` [CTX-1121, Val-Nle-D-Ala-His-Phe-Arg-D-Trp-Asp-Arg-Phe-Gly] (Ac-V[Nle][dA]HFR[dW]DRFG-OH) showed a pEC50 on human MC3R of 8.51. Moreover, the “MC3R selectivity (relative to MC4R)” value on human MC4R was 2,123. In “in vitro” (mouse, plasma), the half-life at 1 µM was 2.3 h; the amount remaining at 5 min, 1 µM came out at 118%; the fraction remaining at 0.5 h, 1 µM amounted to 91.1%; the amount remaining at 1 h, 1 µM amounted to 81.7%. Also, in the data set “in vitro” (mouse, plasma), the amount remaining at 2 h, 1 µM was 68.3% and the share remaining at 4 h, 1 µM was 33.1%. Moreover, the Mouse Plasma Stability, time point 0 min in the data set “in vitro” (pooled mouse plasma, 37° C.) worked out at 100%. The “Mouse Plasma Stability, time point 15 min” value in the data set “in vitro” (pooled mouse plasma, 37° C., 15 min, in % (unit assumed)) came to 120.25.

The compound `CCCC[C@H](NC(=O)[C@@H](NC(=O)[C@H](N)Cc1ccc(O)cc1)C(C)C)C(=O)N[C@H](C)C(=O)N[C@@H](Cc1c[nH]cn1)C(=O)N[C@@H](Cc1ccccc1)C(=O)N[C@@H](CCCNC(=N)N)C(=O)N[C@H](Cc1c[nH]c2ccccc12)C(=O)N[C@@H](CC(=O)O)C(=O)N[C@@H](CCCNC(=N)N)C(=O)N[C@@H](Cc1ccccc1)C(=O)NCC(=O)O` [CTX-1125, D-Tyr-Val-Nle-D-Ala-His-Phe-Arg-D-Trp-Asp-Arg-Phe-Gly] (H-[dY]V[Nle][dA]HFR[dW]DRFG-OH) showed a pEC50 at human MC3R of 8.77. Further, the “MC3R selectivity (relative to MC4R)” value at human MC4R is 747. Further, in “in vitro” (mouse, plasma), the half-life at 1 µM is 2.35 h; the share remaining at 5 min, 1 µM worked out at 93.2%; the fraction remaining at 0.25 h, 1 µM worked out at 105%; the share remaining at 0.5 h, 1 µM came to 105%. Besides, in the data set “in vitro” (mouse, plasma), the fraction remaining at 1 h, 1 µM was 103%; the share remaining at 2 h, 1 µM turned out to be 79.2%; the fraction remaining at 4 h, 1 µM came to 28.8%. The Mouse Plasma Stability, time point 0 min in the data set “in vitro” (pooled mouse plasma, 37° C.) is 100%.

Regarding `CCCC[C@H](NC(C)=O)C(=O)N[C@H](C)C(=O)N[C@@H](Cc1c[nH]cn1)C(=O)N[C@@H](Cc1ccc(I)cc1)C(=O)N[C@@H](CCCNC(=N)N)C(=O)N[C@H](Cc1c[nH]c2ccccc12)C(=O)N[C@@H](CC(=O)O)C(=O)N[C@@H](CCCNC(=N)N)C(=O)N[C@@H](Cc1ccccc1)C(N)=O` [CTX-1169, Nle-D-Ala-His-Phe(4-I)-Arg-D-Trp-Asp-Arg-Phe] (Ac-[Nle][dA]H[Phe(4-I)]R[dW]DRF-NH2), the pEC50 at human MC3R was 8.32. Further, on human MC4R, the “MC3R selectivity (relative to MC4R)” value is listed as 200.

`CCCC[C@H](NC(C)=O)C(=O)N[C@H](CC)C(=O)N[C@@H](Cc1c[nH]cn1)C(=O)N[C@@H](Cc1ccc(I)cc1)C(=O)N[C@@H](CCCNC(=N)N)C(=O)N[C@H](Cc1c[nH]c2ccccc12)C(=O)N[C@@H](CC(=O)O)C(=O)N[C@@H](CCCNC(=N)N)C(=O)N[C@@H](Cc1ccccc1)C(=O)NCC(=O)O` [CTX-1191, Nle-D-Abu-His-Phe(4-I)-Arg-D-Trp-Asp-Arg-Phe-Gly] (Ac-[Nle][dAbu]H[Phe(4-I)]R[dW]DRFG-OH) gave a pEC50 at human MC3R of 8.41. At human MC4R, the “MC3R selectivity (relative to MC4R)” value worked out at 470.

On human MC3R, `CCCC[C@H](NC(C)=O)C(=O)N[C@H](C)C(=O)N[C@@H](Cc1c[nH]cn1)C(=O)N[C@@H](Cc1ccc2ccccc2c1)C(=O)N[C@@H](CCCNC(=N)N)C(=O)N[C@H](Cc1c[nH]c2ccccc12)C(=O)N[C@@H](CC(=O)O)C(=O)N[C@@H](CCCNC(=N)N)C(=O)N[C@@H](Cc1ccccc1)C(=O)NCC(=O)O` [CTX-1512, Nle-D-Ala-His-Nal(2')-Arg-D-Trp-Asp-Arg-Phe-Gly] (Ac-[Nle][dA]H[2Nal]R[dW]DRFG-OH) showed a pEC50 of 7.88. The “MC3R selectivity (relative to MC4R)” value on human MC4R came out at 804.

As to `CCCC[C@H](NC(C)=O)C(=O)N[C@H](C)C(=O)N[C@@H](Cc1c[nH]cn1)C(=O)N[C@@H](Cc1ccc(F)cc1)C(=O)N[C@@H](CCCNC(=N)N)C(=O)N[C@H](Cc1c[nH]c2ccccc12)C(=O)N[C@@H](CC(=O)O)C(=O)N[C@@H](CCCNC(=N)N)C(=O)N[C@@H](Cc1ccccc1)C(=O)NCC(=O)O` [CTX-1518, Nle-D-Ala-His-Phe(4-F)-Arg-D-Trp-Asp-Arg-Phe-Gly] (Ac-[Nle][dA]H[Phe(4-F)]R[dW]DRFG-OH), at human MC3R, the pEC50 was 8.72. Further, the “MC3R selectivity (relative to MC4R)” value at human MC4R is listed as 1,559.

Compound `CCCC[C@H](NC(C)=O)C(=O)N[C@H](C)C(=O)N[C@@H](Cc1c[nH]cn1)C(=O)N[C@@H](Cc1ccccc1)C(=O)N[C@@H](CCCNC(=N)N)C(=O)N[C@H](Cc1c[nH]c2ccccc12)C(=O)N[C@@H](C)C(=O)N[C@@H](CCCNC(=N)N)C(=O)N[C@@H](Cc1ccccc1)C(=O)NCC(=O)O` [CTX-1528, Nle-D-Ala-His-Phe-Arg-D-Trp-Ala-Arg-Phe-Gly] (Ac-[Nle][dA]HFR[dW]ARFG-OH) showed a pEC50 at human MC3R of 8.72. Moreover, the “MC3R selectivity (relative to MC4R)” value on human MC4R came to 182.

On human MC3R, `CCCC[C@H](NC(C)=O)C(=O)N[C@H](C)C(=O)N[C@@H](Cc1c[nH]cn1)C(=O)N[C@@H](Cc1ccccc1)C(=O)N[C@@H](CCCNC(=N)N)C(=O)N[C@H](Cc1c[nH]c2ccccc12)C(=O)N[C@@H](Cc1ccccc1)C(=O)N[C@@H](CCCNC(=N)N)C(=O)N[C@@H](Cc1ccccc1)C(=O)NCC(=O)O` [CTX-1529, Nle-D-Ala-His-Phe-Arg-D-Trp-Phe-Arg-Phe-Gly] (Ac-[Nle][dA]HFR[dW]FRFG-OH) gave a pEC50 of 8.32. Besides, at human MC4R, the “MC3R selectivity (relative to MC4R)” value amounted to 82.

Compound `CCCC[C@H](NC(C)=O)C(=O)N[C@H](C)C(=O)N[C@@H](Cc1c[nH]cn1)C(=O)N[C@@H](Cc1ccccc1)C(=O)N[C@@H](CCCNC(=N)N)C(=O)N[C@H](Cc1c[nH]c2ccccc12)C(=O)N[C@H](Cc1ccccc1)C(=O)N[C@@H](CCCNC(=N)N)C(=O)N[C@@H](Cc1ccccc1)C(=O)NCC(=O)O` [CTX-1531, Nle-D-Ala-His-Phe-Arg-D-Trp-D-Phe-Arg-Phe-Gly] (Ac-[Nle][dA]HFR[dW][dF]RFG-OH) showed a pEC50 on human MC3R of 6.45. Besides, the “MC3R selectivity (relative to MC4R)” value on human MC4R worked out at 8.

On human MC3R, `CCCC[C@H](NC(C)=O)C(=O)N[C@H](C)C(=O)N[C@@H](Cc1c[nH]cn1)C(=O)N[C@@H](Cc1ccc(I)cc1)C(=O)N[C@@H](CCCNC(=N)N)C(=O)N[C@H](Cc1c[nH]c2ccccc12)C(=O)NCC(N)=O` [CTX-1543, Nle-D-Ala-His-Phe(4-I)-Arg-D-Trp-Gly] (Ac-[Nle][dA]H[Phe(4-I)]R[dW]G-NH2) gave a pEC50 of 8.51. For the same compound, the “MC3R selectivity (relative to MC4R)” value at human MC4R is listed as 202.

Regarding `CSCC[C@H](NC(=O)[C@@H](N)C(C)C)C(=O)NCC(=O)N[C@@H](Cc1c[nH]cn1)C(=O)N[C@@H](Cc1ccccc1)C(=O)N[C@@H](CCCNC(=N)N)C(=O)N[C@H](Cc1c[nH]c2ccccc12)C(=O)N[C@@H](CC(=O)O)C(=O)N[C@@H](CCCNC(=N)N)C(=O)N[C@@H](Cc1ccccc1)C(=O)NCC(=O)O` [CTX-1546, Val-Met-Gly-His-Phe-Arg-D-Trp-Asp-Arg-Phe-Gly] (H-VMGHFR[dW]DRFG-OH), the pEC50 at human MC3R is 8.77. Moreover, the “MC3R selectivity (relative to MC4R)” value on human MC4R was 51.

Compound `CSCC[C@H](N)C(=O)NCC(=O)N[C@@H](Cc1c[nH]cn1)C(=O)N[C@@H](Cc1ccccc1)C(=O)N[C@@H](CCCNC(=N)N)C(=O)N[C@H](Cc1c[nH]c2ccccc12)C(=O)N[C@@H](CC(=O)O)C(=O)N[C@@H](CCCNC(=N)N)C(=O)N[C@@H](Cc1ccccc1)C(=O)NCC(=O)O` [CTX-1547, Met-Gly-His-Phe-Arg-D-Trp-Asp-Arg-Phe-Gly] (H-MGHFR[dW]DRFG-OH) gave a pEC50 at human MC3R of 8.82. On human MC4R, the “MC3R selectivity (relative to MC4R)” value is on record as 54.

Regarding `CCCC[C@H](NC(=O)[C@@H](NC(=O)[C@@H](N)Cc1ccc(O)cc1)C(C)C)C(=O)N[C@H](C)C(=O)N[C@@H](Cc1c[nH]cn1)C(=O)N[C@@H](Cc1ccc(Cl)cc1)C(=O)N[C@@H](CCCNC(=N)N)C(=O)N[C@H](Cc1c[nH]c2ccccc12)C(=O)N[C@@H](CC(=O)O)C(=O)N[C@@H](CCCNC(=N)N)C(=O)N[C@@H](Cc1ccccc1)C(=O)NCC(=O)O` [CTX-2121, Tyr-Val-Nle-D-Ala-His-Phe(4-Cl)-Arg-D-Trp-Asp-Arg-Phe-Gly] (H-YV[Nle][dA]H[Phe(4-Cl)]R[dW]DRFG-OH), at human MC3R, the pEC50 is 8.60. The “MC3R selectivity (relative to MC4R)” value on human MC4R is 93.
